In ChEMBL document CHEMBL1201861, “Genomics of Drug Sensitity in Cancer screening data, Wellcome Trust Sanger Institute”:

What was measured:
SK-MEL-24 = assay: cells; type: functional, cell-based, Homo sapiens; conditions: Homo sapiens, SK-MEL-24
Description: SANGER: Inhibition of human SK-MEL-24 cell growth in a cell viability assay.

NCI-H2081 = assay: cells; type: functional, cell-based, Homo sapiens; conditions: Homo sapiens, NCI-H2081;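 also: growth inhibition of human NCI-H2081 cells, read out with a cell viability assay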
Description: SANGER: Inhibition of human NCI-H2081 cell growth in a cell viability assay.

SCC-3 = assay: cells; type: functional, cell-based, Homo sapiens; conditions: Homo sapiens, SCC-3;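 also: cell viability assay measuring inhibition of SCC-3 cell growth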
Description: SANGER: Inhibition of human SCC-3 cell growth in a cell viability assay.

LN-405 = assay: cells; type: functional, cell-based, Homo sapiens; conditions: Homo sapiens, LN-405
Description: SANGER: Inhibition of human LN-405 cell growth in a cell viability assay.

MeWo = assay: cells; type: functional, cell-based, Homo sapiens; conditions: Homo sapiens, MeWo;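 also: growth inhibition of MeWo cells, determined by a cell viability readout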
Description: SANGER: Inhibition of human Mewo cell growth in a cell viability assay.

HCT-116 = assay: cells; type: functional, cell-based, Homo sapiens; conditions: Homo sapiens, HCT-116
Description: SANGER: Inhibition of human HCT-116 cell growth in a cell viability assay.

HPAF-II = assay: cells; type: functional, cell-based, Homo sapiens; conditions: Homo sapiens, HPAF-II;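 also: growth inhibition of HPAF-II cells, read out with a cell viability assay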
Description: SANGER: Inhibition of human HPAF-II cell growth in a cell viability assay.

SCC-4 = assay: cells; type: functional, cell-based, Homo sapiens; conditions: Homo sapiens, SCC-4;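 also: growth inhibition of human SCC-4 cells, read out as cell viability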
Description: SANGER: Inhibition of human SCC-4 cell growth in a cell viability assay.

Raji = assay: cells; type: functional, cell-based, Homo sapiens; conditions: Homo sapiens, Raji;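 also: cell viability assay measuring inhibition of Raji cell growth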
Description: SANGER: Inhibition of human Raji cell growth in a cell viability assay.

GMS-10 = assay: cells; type: functional, cell-based, Homo sapiens; conditions: Homo sapiens, GMS-10;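 also: growth inhibition of GMS-10 cells, read out as cell viability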
Description: SANGER: Inhibition of human GMS-10 cell growth in a cell viability assay.

SN12C = assay: cells; type: functional, cell-based, Homo sapiens; conditions: Homo sapiens, SN12C;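 also: growth inhibition of human SN12C cells, measured by a cell viability assay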
Description: SANGER: Inhibition of human SN12C cell growth in a cell viability assay.

Ca9-22 = assay: cells; type: functional, cell-based, Homo sapiens; conditions: Homo sapiens, Ca9-22;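 also: growth inhibition of Ca9-22 cells, read out with a cell viability assay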
Description: SANGER: Inhibition of human Ca9-22 cell growth in a cell viability assay.

786-0 = assay: cells; type: functional, cell-based, Homo sapiens; conditions: Homo sapiens
Description: SANGER: Inhibition of human 786-0 cell growth in a cell viability assay.

OVCAR-8 = assay: cells; type: functional, cell-based, Homo sapiens; conditions: Homo sapiens, OVCAR-8;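 also: growth inhibition of human OVCAR-8 cells, read out by a cell viability assay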
Description: SANGER: Inhibition of human OVCAR-8 cell growth in a cell viability assay.

SW1088 = assay: cells; type: functional, cell-based, Homo sapiens; conditions: Homo sapiens, SW1088;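 also: growth inhibition of human SW1088 cells, read out by a cell viability assay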
Description: SANGER: Inhibition of human SW1088 cell growth in a cell viability assay.

MKN-45 = assay: cells; type: functional, cell-based, Homo sapiens; conditions: Homo sapiens, MKN-45;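 also: growth inhibition of human MKN-45 cells, measured with a cell viability assay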
Description: SANGER: Inhibition of human MKN45 cell growth in a cell viability assay.

SBC-5 = assay: cells; type: functional, cell-based, Homo sapiens; conditions: Homo sapiens, SBC-5;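 also: cell viability assay read-out, IC50 is the concentration that inhibits growth of the cells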
Description: SANGER: Inhibition of human SBC-5 cell growth in a cell viability assay.

NCI-H2087 = assay: cells; type: functional, cell-based, Homo sapiens; conditions: Homo sapiens, NCI-H2087;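 also: growth inhibition determined with a cell viability readout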
Description: SANGER: Inhibition of human NCI-H2087 cell growth in a cell viability assay.

TE-15 = assay: cells; type: functional, cell-based, Homo sapiens; conditions: Homo sapiens, TE-15;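 also: cell viability readout of growth inhibition in TE-15 cells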
Description: SANGER: Inhibition of human TE-15 cell growth in a cell viability assay.

HOP-92 = assay: cells; type: functional, cell-based, Homo sapiens; conditions: Homo sapiens, HOP-92;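 also: cell viability readout, with IC50 reflecting inhibition of HOP-92 cell growth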
Description: SANGER: Inhibition of human HOP-92 cell growth in a cell viability assay.

8505C = assay: cells; type: functional, cell-based, Homo sapiens; conditions: Homo sapiens, 8505C
Description: SANGER: Inhibition of human 8505C cell growth in a cell viability assay.

COLO-792 = assay: cells; type: functional, cell-based, Homo sapiens; conditions: Homo sapiens, COLO-792
Description: SANGER: Inhibition of human COLO-792 cell growth in a cell viability assay.

NCI-H1437 = assay: cells; type: functional, cell-based, Homo sapiens; conditions: Homo sapiens, NCI-H1437;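 also: growth inhibition of human NCI-H1437 cells, read out by a cell viability assay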
Description: SANGER: Inhibition of human NCI-H1437 cell growth in a cell viability assay.

BPH-1 = assay: cells; type: functional, cell-based, Homo sapiens; conditions: Homo sapiens, BPH-1;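 also: cell viability assay measuring growth inhibition of human BPH-1 cells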
Description: SANGER: Inhibition of human BPH-1 cell growth in a cell viability assay.

YKG-1 = assay: cells; type: functional, cell-based, Homo sapiens; conditions: Homo sapiens, YKG-1
Description: SANGER: Inhibition of human YKG-1 cell growth in a cell viability assay.

RPMI 8402 = assay: SANGER: Inhibition of human RPMI-8402 cell growth in a cell viability assay.; type: functional, cell-based; conditions: Homo sapiens, RPMI 8402; read-out: IC50
NCI-H292 = assay: cells; type: functional, cell-based, Homo sapiens; conditions: Homo sapiens, NCI-H292;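 also: growth inhibition of NCI-H292 cells, read out with a cell viability assay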
Description: SANGER: Inhibition of human NCI-H292 cell growth in a cell viability assay.

CAL-33 = assay: cells; type: functional, cell-based, Homo sapiens; conditions: Homo sapiens, CAL-33;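 also: growth inhibition of CAL-33 cells, read out with a cell viability assay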
Description: SANGER: Inhibition of human CAL-33 cell growth in a cell viability assay.

NCI-H1703 = assay: cells; type: functional, cell-based, Homo sapiens; conditions: Homo sapiens, NCI-H1703;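 also: growth inhibition of NCI-H1703 cells, read out via a cell viability assay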
Description: SANGER: Inhibition of human NCI-H1703 cell growth in a cell viability assay.

BHY = assay: cells; type: functional, cell-based, Homo sapiens; conditions: Homo sapiens, BHY
Description: SANGER: Inhibition of human BHY cell growth in a cell viability assay.

REH = assay: cells; type: functional, cell-based, Homo sapiens; conditions: Homo sapiens, REH;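 also: growth inhibition of REH cells determined with a cell viability read-out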
Description: SANGER: Inhibition of human REH cell growth in a cell viability assay.

COR-L105 = assay: cells; type: functional, cell-based, Homo sapiens; conditions: Homo sapiens, COR-L105
Description: SANGER: Inhibition of human COR-L105 cell growth in a cell viability assay.

ESS-1 = assay: cells; type: functional, cell-based, Homo sapiens; conditions: Homo sapiens, ESS-1;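 also: growth inhibition of human ESS-1 cells, read out by a cell viability assay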
Description: SANGER: Inhibition of human ESS-1 cell growth in a cell viability assay.

PF-382 = assay: cells; type: functional, cell-based, Homo sapiens; conditions: Homo sapiens, PF-382
Description: SANGER: Inhibition of human PF-382 cell growth in a cell viability assay.

SNU-387 = assay: cells; type: functional, cell-based, Homo sapiens; conditions: Homo sapiens, SNU-387
Description: SANGER: Inhibition of human SNU-387 cell growth in a cell viability assay.

EB2 = assay: cells; type: functional, cell-based, Homo sapiens; conditions: Homo sapiens, EB2;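 also: growth inhibition of EB2 cells, read out with a cell viability assay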
Description: SANGER: Inhibition of human EB2 cell growth in a cell viability assay.

UMC-11 = assay: cells; type: functional, cell-based, Homo sapiens; conditions: Homo sapiens, UMC-11;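 also: growth inhibition of UMC-11 cells, read out with a cell viability assay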
Description: SANGER: Inhibition of human UMC-11 cell growth in a cell viability assay.

KARPAS-422 = assay: cells; type: functional, cell-based, Homo sapiens; conditions: Homo sapiens, KARPAS-422
Description: SANGER: Inhibition of human KARPAS-422 cell growth in a cell viability assay.

ECC4 = assay: cells; type: functional, cell-based, Homo sapiens; conditions: Homo sapiens, ECC4;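 also: growth inhibition of ECC4 cells, read out with a cell viability assay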
Description: SANGER: Inhibition of human ECC4 cell growth in a cell viability assay.

GAMG = assay: cells; type: functional, cell-based, Homo sapiens; conditions: Homo sapiens, GAMG;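 also: cell growth inhibition measured by a viability assay in the GAMG human cell line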
Description: SANGER: Inhibition of human GAMG cell growth in a cell viability assay.

HCC70 = assay: cells; type: functional, cell-based, Homo sapiens; conditions: Homo sapiens, HCC70;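 also: cell viability assay measuring how strongly the compound suppresses proliferation of HCC70 cells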
Description: SANGER: Inhibition of human HCC70 cell growth in a cell viability assay.

NCI-H2196 = assay: cells; type: functional, cell-based, Homo sapiens; conditions: Homo sapiens, NCI-H2196;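 also: cell viability assay used as the readout of growth inhibition in NCI-H2196 cells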
Description: SANGER: Inhibition of human NCI-H2196 cell growth in a cell viability assay.

BXPC-3 = assay: cells; type: functional, cell-based, Homo sapiens; conditions: Homo sapiens, BXPC-3;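 also: growth inhibition of human BxPC-3 cells, read out by a cell viability assay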
Description: SANGER: Inhibition of human BxPC-3 cell growth in a cell viability assay.

MDA-MB-175-VII = assay: cells; type: functional, cell-based, Homo sapiens; conditions: Homo sapiens, MDA-MB-175-VII
HuP-T4 = assay: cells; type: functional, cell-based, Homo sapiens; conditions: Homo sapiens, HuP-T4;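 also: cell viability assay measuring how much HuP-T4 cell growth is inhibited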
Description: SANGER: Inhibition of human HuP-T4 cell growth in a cell viability assay.

`Cc1cc([N+](=O)[O-])ccc1NS(=O)(=O)c1cc(Cl)ccc1Cl` gave an IC50 (SK-MEL-24) of 6.27 µM, an IC50 (NCI-H2081) greater than 32 µM and an IC50 (SCC-3) greater than 32 µM. The IC50 (LN-405) was 11.9 µM, the IC50 (MeWo) was 28.6 µM and the IC50 (HCT-116) was 3.72 µM. It also gave an IC50 (HPAF-II) of 10.7 µM, an IC50 (SCC-4) of 13.8 µM and an IC50 (Raji) of 6.44 µM. For the same compound, the IC50 (GMS-10) was 20.1 µM, the IC50 (SN12C) was 3.64 µM and the IC50 (Ca9-22) was 6 µM. The IC50 (786-0) was 3.92 µM, the IC50 (OVCAR-8) was 4.26 µM and the IC50 (SW1088) was 12.3 µM. The IC50 (MKN-45) was 2.15 µM, the IC50 (SBC-5) was 1.61 µM and the IC50 (NCI-H2087) was 2.16 µM. The IC50 (TE-15) was 2.15 µM, the IC50 (HOP-92) was 2.81 µM and the IC50 (8505C) was 2.67 µM. It also gave an IC50 (COLO-792) of 2.01 µM, an IC50 (NCI-H1437) of 2.73 µM and an IC50 (BPH-1) of 12.2 µM. For the same compound, the IC50 (YKG-1) was 5.66 µM, the IC50 (RPMI 8402) was 6.85 µM and the IC50 (NCI-H292) was 11.3 µM. For the same compound, the IC50 (CAL-33) was 3.56 µM, the IC50 (NCI-H1703) was 3.29 µM and the IC50 (BHY) was 4.5 µM. The IC50 (REH) was 11.5 µM, the IC50 (COR-L105) was 6.58 µM and the IC50 (ESS-1) was 7.38 µM. It also gave an IC50 (PF-382) of 7.73 µM, an IC50 (SNU-387) of 7.66 µM and an IC50 (EB2) greater than 32 µM. The IC50 (UMC-11) was 1.09 µM, the IC50 (KARPAS-422) was 8.26 µM and the IC50 (ECC4) was greater than 32 µM. The IC50 (GAMG) was 5.58 µM, the IC50 (HCC70) was 6.62 µM and the IC50 (NCI-H2196) was greater than 32 µM. It also gave an IC50 (BXPC-3) of 6.84 µM, an IC50 (MDA-MB-175-VII) of 2.02 µM and an IC50 (HuP-T4) of 1.68 µM.

`Oc1ccc2ccccc2c1SSc1c(O)ccc2ccccc12` gave an IC50 (SK-MEL-24) greater than 32 µM, an IC50 (NCI-H2081) greater than 32 µM and an IC50 (SCC-3) greater than 32 µM. It also gave an IC50 (LN-405) greater than 32 µM, an IC50 (MeWo) greater than 32 µM and an IC50 (HCT-116) greater than 32 µM. It also gave an IC50 (HPAF-II) greater than 32 µM, an IC50 (SCC-4) greater than 32 µM and an IC50 (Raji) greater than 32 µM. The IC50 (GMS-10) was greater than 32 µM, the IC50 (SN12C) was greater than 32 µM and the IC50 (Ca9-22) was 28.1 µM. It also gave an IC50 (786-0) of 3.32 µM, an IC50 (OVCAR-8) greater than 32 µM and an IC50 (SW1088) greater than 32 µM. The IC50 (MKN-45) was greater than 32 µM, the IC50 (SBC-5) was greater than 32 µM and the IC50 (NCI-H2087) was greater than 32 µM. It also gave an IC50 (TE-15) greater than 32 µM, an IC50 (HOP-92) greater than 32 µM and an IC50 (8505C) of 11.2 µM. It also gave an IC50 (COLO-792) greater than 32 µM, an IC50 (NCI-H1437) greater than 32 µM and an IC50 (BPH-1) greater than 32 µM. It also gave an IC50 (YKG-1) greater than 32 µM, an IC50 (RPMI 8402) of 5.77 µM and an IC50 (NCI-H292) greater than 32 µM. It also gave an IC50 (CAL-33) greater than 32 µM, an IC50 (NCI-H1703) greater than 32 µM and an IC50 (BHY) of 24.5 µM. For the same compound, the IC50 (REH) was 3.37 µM, the IC50 (COR-L105) was 7.36 µM and the IC50 (ESS-1) was greater than 32 µM. It also gave an IC50 (PF-382) of 5.35 µM, an IC50 (SNU-387) greater than 32 µM and an IC50 (EB2) of 4.49 µM. For the same compound, the IC50 (UMC-11) was greater than 32 µM, the IC50 (KARPAS-422) was 7.84 µM and the IC50 (ECC4) was greater than 32 µM. For the same compound, the IC50 (GAMG) was greater than 32 µM, the IC50 (HCC70) was greater than 32 µM and the IC50 (NCI-H2196) was greater than 32 µM. It also gave an IC50 (BXPC-3) greater than 32 µM, an IC50 (MDA-MB-175-VII) greater than 32 µM and an IC50 (HuP-T4) greater than 32 µM.
